pIC50: −log10 of the molar value. The source made the active and inactive calls. The calls are words filed in the database; no cut-off is given here.

In test [1] the test system is JAR. Put plainly: Induction of apoptosis in human JAR cells assessed as fold increase in cleaved PARP level at 10 uM incubated for 24 hrs by Western blot analysis. The format is functional. A general note: In western blotting, separated proteins are transferred to a membrane and probed.
In the next test the test system is A549. Put plainly: Antiproliferative activity against human A549 cells assessed as cell growth inhibition incubated for 72 hrs by MTT assay. The format is functional, cell-based. Particulars: A549, 72 h. A general note: Tetrazolium dyes change colour on reduction, which living cells bring about.
Test [2] has as its system JAR. As to the kind of experiment: Induction of apoptosis in human JAR cells assessed as late apoptotic cells at 5 uM measured after 72 hrs by Annexin V-FITC/PI staining based flow cytometry (reference value: 11.67%). The format is functional. Background: Flow cytometry measures light scatter and fluorescence of single cells or particles in a stream.
Test [3] concerns JAR. As to the kind of experiment: Antiproliferative activity against human JAR cells assessed as cell growth inhibition at 10 uM incubated for 72 hrs by MTT assay relative to control. The test is classed as functional.
Test [4] deals with JAR. As to the kind of experiment: Induction of apoptosis in human JAR cells assessed as live cells at 10 uM measured after 72 hrs by Annexin V-FITC/PI staining based flow cytometry (reference value: 79.87%). The test is classed as functional.
Test [5] relates to JAR. As to the kind of experiment: Induction of apoptosis in human JAR cells assessed as late apoptotic cells at 10 uM measured after 72 hrs by Annexin V-FITC/PI staining based flow cytometry (reference value: 11.67%). The test is classed as functional.
Test [6] has as its system JAR. Put plainly: Induction of apoptosis in human JAR cells assessed as early apoptotic cells at 10 uM measured after 72 hrs by Annexin V-FITC/PI staining based flow cytometry (reference value: 8.24%). The format is functional.
Test [7] deals with JAR. Put plainly: Inhibition of colony formation in human JAR cells measured after 3 days by Giemsa staining based microscopic analysis. The test is classed as functional, cell-based. The settings on record: time 3.0 day, DDE = dose-dependent effect.
The test system of test [8] is JAR. As to the kind of experiment: Inhibition of cell migration in human JAR cells at 5 uM measured after 72 hrs by scratch wound healing assay relative to control. The format is functional.
The next test deals with MCF7. As to the kind of experiment: Antiproliferative activity against human MCF7 cells assessed as cell growth inhibition incubated for 72 hrs by MTT assay. Particulars: MCF7, 72 h. The test is classed as functional, cell-based.
The subject of the next test is K562. As to the kind of experiment: Antiproliferative activity against human K562 cells assessed as cell growth inhibition incubated for 72 hrs by MTT assay. The test is classed as functional, cell-based. The settings on record: K562, 72 h.
Test [9] deals with JAR. Put plainly: Induction of apoptosis in human JAR cells assessed as necrotic cells at 10 uM measured after 72 hrs by Annexin V-FITC/PI staining based flow cytometry (reference value: 0.22%). The test is classed as functional.
For another test, the species on record is Homo sapiens. As to the kind of experiment: Binding affinity to RNase L (unknown origin) expressed in Escherichia coli BL21 (DE3) assessed as thermal stability by measuring melting temperature at 60 uM incubated for 50 mins by NanoDSF analysis.
Test [10] has as its system JAR. As to the kind of experiment: Inhibition of colony formation in human JAR cells assessed as cell reproductive death at upto 5 uM measured after 3 days by Giemsa staining based microscopic analysis. The format is functional. Particulars: time 3.0 day.
Test [11] has as its system JAR. As to the kind of experiment: Induction of apoptosis in human JAR cells assessed as early apoptotic cells at 5 uM measured after 72 hrs by Annexin V-FITC/PI staining based flow cytometry (reference value: 8.24%). The format is functional.
Test [12] deals with JAR. As to the kind of experiment: Induction of apoptosis in human JAR cells assessed as fold increase in PARP cleavage at 5 to10 uM incubated for 24 hrs by Western blot analysis. The format is functional. The settings on record: dose 10 µM.
The test system of test [13] is JAR. As to the kind of experiment: Induction of apoptosis in human JAR cells assessed as live cells at 5 uM measured after 72 hrs by Annexin V-FITC/PI staining based flow cytometry (reference value: 79.87%). The format is functional.
The test system of test [14] is JAR. As to the kind of experiment: Antiproliferative activity against human JAR cells assessed as cell growth inhibition incubated for 72 hrs by MTT assay. The format is functional, cell-based.
The test system of test [15] is JAR. As to the kind of experiment: Induction of apoptosis in human JAR cells assessed as necrotic cells at 5 uM measured after 72 hrs by Annexin V-FITC/PI staining based flow cytometry (reference value: 0.22%). The format is functional.

With `CCOC(=O)C1=C(Nc2ccccc2)S/C(=C\c2ccc(F)c(C#N)c2)C1=O`, the “fold change (FC)” value with JAR [1] and in the test on JAR [12] was >2 throughout. In addition, the negative logarithm of the IC50 (pIC50) with A549 was 5.10; with MCF7 it was 5.28; in the test with K562 it was 5.80; with JAR [14] it was 5.82. For the same molecule, the Activity in the test with JAR [2] amounted to 27.47%; in the test with JAR [4], 32.48%; in the test on JAR [5], 55.7%; in the test with JAR [6], 5.06%; with JAR [9], 6.8%; in the test on JAR [11], 23.02%. Further, the Activity was 47.62% with JAR [13] and 1.88% in the test on JAR [15]. The inhibition at 10 µM in the test on JAR [3] was 99.9%. Moreover, in the test on JAR [7], the inhibition entry is “Dde”. Also, in the test with JAR [8], the inhibition at 5 µM amounted to 85%. Besides, in the test filed under Homo sapiens, the ΔTm is 0.8 °C. The inhibition entry with JAR [10] is “Active”.

Broadly, the pIC50 is the negative decadic logarithm of the IC50, by convention in mol/L. What is called inhibition is the share of the control response that was lost under treatment. As usually defined, the ΔTm is the shift of the melting midpoint relative to a reference.
